Laboratory results from US20110130386A1, “DNA-PK INHIBITORS” (priority 2008, published 2011).

Molecular target: PI 3-kinase
Experiment: not given
Settings: stated as the same as for DNA-PK; cited from earlier work

In the case of `O=c1cc(N2CCOCC2)oc2c(-c3ccccc3)cccc12` [LY294002], the IC50 is given as about 1000 nM.

Tested on: HeLa cells
Experiment: Survival Enhancement Ratio (clonogenic survival after 2 Gray irradiation)
Format: cell-based, human
Settings: example compound of WO 03/024949; concentration not given
Protocol: The Survival Enhancement Ratio (SER) is a ratio of the enhancement of cell kill elicited by the DNA-PK inhibitor after 2 Grays of irradiation compared to […]. DNA-PK inhibitors were used at a concentration of 25, 50, 100 and/or 500 nM. Radiation was delivered by a Faxitron 43855D machine at a dose rate of 1 Gy pre minute The SER at 2 Gray irradiation was calculated from the formula:
The degree of cell killing was monitored by a standard clonogenic survival assay. Briefly, tissue culture treated 6-well plates were seeded with HeLa cells at an appropriate concentration to give 100-200 colonies per well and returned to the incubator in order to allow the cells to attach. Four hours later, compound or vehicle control was added to the cells. The cells were then incubated for 1 hour in the presence of inhibitor prior to irradiation at 2 Gray using a Faxitron 43855D cabinet X-ray machine. The cells were then incubated for a further 16 hours before the media was replaced with fresh media in the absence of DNA-PK inhibitor. After 8 days, colonies formed were fixed and stained with Giemsa (Sigma, Poole, UK) and scored using an automated colony counter (Oxford Optronics Ltd, Oxford, UK). The data was calculated as described above.

For `O=c1cc(N2CCOCC2)oc2c(-c3cccc4c3sc3ccccc34)cccc12` [reference compound], the SER was 1.3.

Molecular target: Mammalian DNA-PK (Homo sapiens, UniProt P78527)
Experiment: DNA-PK inhibition assay (ELISA of p53 Ser15 phosphorylation of GST-p53N66)
Format: biochemical, Mammalian (isolated from HeLa cell nuclear extract)
Settings: not given
Protocol: In order to assess the inhibitory action of the compounds against DNA-PK in vitro, the following assay was used to determine IC50 values.
To the assay mix, varying concentrations of inhibitor (in DMSO at a final concentration of 1%) were added. After 10 minutes of incubation, ATP was added to give a final concentration of […] along with a 30 mer double stranded DNA oligonucleotide (final concentraion of 0.5 ng/ml) to initiate the reaction. After 1 hour with shaking, 150 μl of phosphate buffered saline (PBS) was added to the reaction and 5 μl then transferred to a 96 well opaque white plate containing 45 μl of PBS per well where the GSTp53N66 substrate was allowed to bind to the wells for 1 hour. To detect the phosphorylation event on the serine 15 residue of p53 elicited by DNA-PK a p53 phosphoserine-15 antibody (Cell Signaling Technology) was used in a basic ELISA procedure. An anti-rabbit HRP conjugated secondary antibody (Pierce) was then employed in the ELISA before the addition of chemiluminescence reagent. (NEN Renaissance) to detect the signal as measured by chemiluminescent counting via a TopCount NXT (Packard).
The enzyme activity for each compound is then calculated using the following equation: […]
The results are discussed below as IC50 values (the concentration at which 50% of the enzyme activity is inhibited). These are determined over a range of different concentrations, normally from 10 μM down to 0.001 μM. Such IC50 values are used as comparative values to identify increased compound potencies.

Work on `O=c1cc(N2CCOCC2)oc2c(-c3cccc4c3sc3ccccc34)cccc12` [reference compound] yielded an IC50 of 10 to 12 nM.

Same assay, conditions: DNA-PK from HeLa nuclear extract; mean value; read-out: mean IC50

First: O=c1cc(N2CCOCC2)oc2c(-c3ccc(CN4CCC(O)CC4)c4c3sc3ccccc34)cccc12 [4j]
Second: O=c1cc(N2CCOCC2)oc2c(-c3ccc(CN4CCC(O)C4)c4c3sc3ccccc34)cccc12 (centres unmarked) [4l]
The IC50 of the first is 17-fold higher: 508 nM for the first, 30.3 nM for the second. The second is the more potent here.

Going from `O=c1cc(N2CCOCC2)oc2c(-c3ccc(CN4CCNCC4)c4c3sc3ccccc34)cccc12` [4k] to `CN1CCN(Cc2ccc(-c3cccc4c(=O)cc(N5CCOCC5)oc34)c3sc4ccccc4c23)CC1` [4v], the IC50 falls from 7.14 nM to 1.31 nM (5.5-fold). The second is the more potent here.

First: CN(C)Cc1ccc(-c2cccc3c(=O)cc(N4CCOCC4)oc23)c2sc3ccccc3c12 [4m]
Second: CN(C)CCN(C)Cc1ccc(-c2cccc3c(=O)cc(N4CCOCC4)oc23)c2sc3ccccc3c12 [4u]
The IC50 of the first is 11-fold higher: 293 nM for the first, 27.3 nM for the second.

Compared with `COc1cccc(N2CCN(Cc3ccc(-c4cccc5c(=O)cc(N6CCOCC6)oc45)c4sc5ccccc5c34)CC2)c1` [4n], `COc1ccc(N2CCN(Cc3ccc(-c4cccc5c(=O)cc(N6CCOCC6)oc45)c4sc5ccccc5c34)CC2C)cc1` (centres unmarked) [4o] is 1.9-fold lower in IC50: 975 nM for the first, 502 nM for the second.

`O=c1cc(N2CCOCC2)oc2c(-c3ccc(CN4CCC(CO)CC4)c4c3sc3ccccc34)cccc12` [4p] and `O=c1cc(N2CCOCC2)oc2c(-c3ccc(CN4CCCC(CO)C4)c4c3sc3ccccc34)cccc12` (centres unmarked) [4r] are within 1.5-fold of each other in IC50: 96 nM for the first, 124 nM for the second.

First: C[C@@H]1CN(Cc2ccc(-c3cccc4c(=O)cc(N5CCOCC5)oc34)c3sc4ccccc4c23)C[C@H](C)O1 [4q]
Second: O=c1cc(N2CCOCC2)oc2c(-c3ccc(CN4CCCCCC4)c4c3sc3ccccc34)cccc12 [4x]
The IC50 of the first is 23-fold lower: 83.3 nM for the first, 1910 nM for the second. The first is the more potent here.

First: CN(Cc1ccccc1)Cc1ccc(-c2cccc3c(=O)cc(N4CCOCC4)oc23)c2sc3ccccc3c12 [4s]
Second: CCN(CC)Cc1ccc(-c2cccc3c(=O)cc(N4CCOCC4)oc23)c2sc3ccccc3c12 [4y]
The IC50 of the first is 2.1-fold lower: 942 nM for the first, 1960 nM for the second.

First: COCCN1CCN(Cc2ccc(-c3cccc4c(=O)cc(N5CCOCC5)oc34)c3sc4ccccc4c23)CC1 [4t]
Second: CC(=O)N1CCN(Cc2ccc(-c3cccc4c(=O)cc(N5CCOCC5)oc34)c3sc4ccccc4c23)CC1 [4z]
The IC50 of the first is 9.8-fold lower: 7.92 nM for the first, 77.9 nM for the second. The first is the more potent here.

Tested on: cells
Experiment: not given
Settings: Rosenzweig et al. 1999; cited from earlier work

In the case of `O=c1cc(N2CCOCC2)oc2c(-c3ccccc3)cccc12` [LY294002], the “sensitisation of cells to the effects of IR” value is given as “weakly sensitise cells to the effects of IR”.
